Test system: Caco-2 cell monolayers
Test: Indomethacin-induced damage (loss of TEER) in Caco-2 cell monolayers, assay development
Format: cell-based, human
Procedure: Considering the fact that the Caco-2 cell model mimics the human intestinal mucosa, and that the intraluminal pH of the small intestine ranges from approximately 6.0 to 7.4, evaluation of the damage induced by indomethacin (the chosen ulcerogenic agent, the use of which was previously reported) was performed at these two pH conditions. The choice of 0.75 mM indomethacin was based on earlier observations reported for a similar evaluation using Caco-2 cells for this initial assay development stage. For each pH condition, the damage was measured by comparing the TEER values of indomethacin-treated cell monolayers with those of control cell monolayers before and after the assay, and the % of TEER remaining (compared to the control treatment) was calculated. The results are illustrated below in FIG. 7. […] In contrast, for the assay with the pH condition of 6.0, approximately 50% of the TEER was lost by two hours and nearly 80% of the TEER was lost by the end of the assay duration of 5 hours. […] Therefore, pH 6.0 was selected as the optimal pH condition on the apical (modeling the luminal) side for this assay. It was also noted that the majority of the damage was caused between 2 and 3 hours of duration; any additional damage after three hours was marginal. For this reason, further evaluations were performed at a truncated duration of 2 to 3 hours. Considering the fact that significant damage to the cells was induced post two hours in the assessment above and the fact that a shorter assay duration would be desirable for the purposes of experimental logistics, different concentrations (1, 1.5 and 2 mM) of indomethacin were tested to understand the extent of damage caused to the cell monolayers as a function of indomethacin concentration using apical pH of 6.0 and a 3 hour duration. […] Therefore, a concentration of 2 mM was selected as the optimal concentration for this assay.

Question: Which results are given for `COc1ccc2c(c1)c(CC(=O)O)c(C)n2C(=O)c1ccc(Cl)cc1` [indomethacin]?
Answer: damage to the cell monolayers as a function of indomethacin concentration (2 mM (1, 1.5 and 2 mM tested), apical pH 6.0, 3 hour duration): Maximum damage; TEER lost (indomethacin 0.75 mM, apical pH 6.0, 5 hours): ~80%; TEER lost (indomethacin 0.75 mM, apical pH 6.0, two hours): approximately 50%; loss of TEER (indomethacin 0.75 mM, pH 7.4, 5 hours): a significant loss of TEER was not observed

Reference: patent publication US9989519B1, “Method for determining in vitro bioequivalence of a sucralfate suspension sample to a sucralfate suspension reference listed drug (RLD)” (Clayton Pharmaceuticals, LLC, priority 2017, dated 2018)
